Among the data in PubChem BioAssay AID806 (SRMLSC, 2007) are EC50, EC90 and CC50 values, retold here.

The source made the active and inactive calls. How the calls were made is not given here.

This assay relates to virus-infected cells, CPE inhibition, dose response. As to the kind of experiment: PubChem AID 806. The conditions noted are these: for EC90: measured here: EC90 CPE inhibition; for CC50: measured here: cytotoxicity, cell viability IC50.

Broadly, the EC50 is the midpoint of the concentration-response curve. As a reminder, the EC90 is the point of the concentration-response curve where the effect stands at 90%. A higher EC90 goes with weaker potency. Broadly, the CC50 is the concentration that lowers cell viability or growth by half. On to `O=C1CC(C(=O)Nc2ccc(C(=O)N3CCOCC3)cc2)C2(CCCCC2)O1` (configuration not stated), for which the EC50 was > 60 µM (inactive), the EC90 was over 60 µM and the CC50 is over 60 µM.

Turning to `COc1ccccc1CNC(=O)c1ccc(S(=O)(=O)N2CCCC2)cc1`, the EC50 is > 60 µM (inactive), the 90% effect concentration (EC90) is over 60 µM and the half-maximal cytotoxic concentration (CC50) is over 60 µM.

For `O=C(CCS(=O)(=O)c1cccc2nsnc12)NC1CCCCC1`, the EC50 was > 60 µM (inactive), the concentration for an effect of 90% (EC90) is over 60 µM and the 50% cytotoxic concentration (CC50) was over 60 µM.

`COCCNC(=O)C(c1ccccc1)N(CCOC)C(=O)Cn1nnc2ccccc21` (configuration not stated): the EC50 is > 60 µM (inactive), the 90% effect concentration (EC90) is over 60 µM and the CC50 is over 60 µM.

Regarding `Cc1cc(C(=O)Nc2c(C)n(C)n(-c3ccccc3)c2=O)c(C)o1`, the EC50 was > 60 µM (inactive), the concentration for an effect of 90% (EC90) was over 60 µM and the 50% cytotoxic concentration (CC50) was over 60 µM.

In the case of `O=Nc1c(O)n(Cc2cccc(Cl)c2)c2ccccc12`, the EC50 is > 60 µM (inactive), the concentration for an effect of 90% (EC90) was over 60 µM and the cytotoxic concentration (CC50) was over 60 µM.

In the case of `O=C(O)CCS(=O)(=O)c1nc(-c2cccs2)cc(C(F)(F)F)n1`, the EC50 was > 60 µM (inactive), the 90% effect concentration (EC90) is over 60 µM and the cytotoxic concentration (CC50) was over 60 µM.

`CN(C)CCSc1nnc(-c2ccccc2)o1`: the EC50 was > 60 µM (inactive), the EC90 was over 60 µM and the CC50 was over 60 µM.

For `O=C(Cc1ccccc1)Nc1ccc(-c2nnc(-c3ccco3)o2)cc1`, the EC50 is > 60 µM (inactive), the EC90 is over 60 µM and the CC50 was over 60 µM.

For `O=C1NCCCc2c1oc1ccc(O)cc21`, the EC50 is > 60 µM (inactive), the 90% effect concentration (EC90) is over 60 µM and the CC50 is over 60 µM.

With `COc1ccccc1NC(=O)c1cc2ccccc2o1`, the EC50 was > 60 µM (inactive), the EC90 is over 60 µM and the CC50 was over 60 µM.

As to `CC(C)(C)OC(=O)NCCc1nnc(SCc2ccccc2Cl)o1`, the EC50 is > 60 µM (inactive), the EC90 was over 60 µM and the half-maximal cytotoxic concentration (CC50) is over 60 µM.

As to `Cc1cccc(NC(=O)c2cc3ccccc3o2)c1`, the EC50 was > 60 µM (inactive), the EC90 is over 60 µM and the CC50 is over 60 µM.

As for `COc1ccccc1NC(=O)C1CCCCN1S(=O)(=O)c1ccc(F)cc1` (configuration not stated), the EC50 is > 60 µM (inactive), the 90% effect concentration (EC90) was over 60 µM and the half-maximal cytotoxic concentration (CC50) was over 60 µM.

Regarding `Cc1ccc(-n2ncc3c(Nc4cccc(C(=O)O)c4)ncnc32)cc1`, the EC50 is > 60 µM (inactive), the 90% effect concentration (EC90) is over 60 µM and the CC50 was over 60 µM.

Turning to `O=C(NCC1CCCO1)C1CCCCN1S(=O)(=O)c1ccc(F)cc1` (configuration not stated), the EC50 was > 60 µM (inactive), the EC90 is over 60 µM and the CC50 is over 60 µM.

Consider `Cc1ccc(CNC(=O)CCS(=O)(=O)c2cccc3nsnc23)cc1`, for which the EC50 was > 60 µM (inactive), the EC90 was over 60 µM and the CC50 was over 60 µM.

`COC(=O)CSc1nnc(-c2ccncc2)o1`: the EC50 is > 60 µM (inactive), the EC90 was over 60 µM and the CC50 was over 60 µM.

Turning to `O=C1CC(C(=O)Nc2cccc3ccccc23)C2(CCCC2)O1` (configuration not stated), the EC50 was > 60 µM (inactive), the EC90 was over 60 µM and the CC50 is over 60 µM.

For the compound `O=c1[nH]c2cccnc2n1Cc1ccccc1`, the EC50 is > 60 µM (inactive), the EC90 was over 60 µM and the CC50 is over 60 µM.

In the case of `COc1ccc(OC)c(-n2c(SCC(=O)Nc3cc(C)on3)nnc2-c2c[nH]c3ccccc23)c1`, the EC50 was > 60 µM (inactive), the 90% effect concentration (EC90) is over 60 µM and the cytotoxic concentration (CC50) was over 60 µM.

Regarding `CCSc1nnc(-c2ccc(OC)cc2)o1`, the EC50 is > 60 µM (inactive), the EC90 is over 60 µM and the 50% cytotoxic concentration (CC50) was over 60 µM.

Turning to `O=C(O)c1cccc(Nc2ncnc3c2cnn3-c2ccccc2)c1`, the EC50 was > 60 µM (inactive), the EC90 is over 60 µM and the CC50 was over 60 µM.

For `CC(C)CNC(=O)c1cccc(NC(=O)c2ccc(NC(=O)c3ccco3)cc2)c1`, the EC50 is > 60 µM (inactive), the EC90 is over 60 µM and the 50% cytotoxic concentration (CC50) is over 60 µM.

As to `CCOc1ccc(Nc2ncnc3c2cnn3-c2ccccc2)cc1`, the EC50 was > 60 µM (inactive), the EC90 is over 60 µM and the CC50 was over 60 µM.

As for `Cc1nnc(SC(=O)N2c3ccccc3Sc3ccccc32)s1`, the EC50 was > 60 µM (inactive), the concentration for an effect of 90% (EC90) is over 60 µM and the CC50 is over 60 µM.

Regarding `COc1ccc(Cl)cc1NC(=O)CS(=O)(=O)c1cccc2nsnc12`, the EC50 was > 60 µM (inactive), the concentration for an effect of 90% (EC90) was over 60 µM and the CC50 is over 60 µM.

`CCOC(=O)c1cnn(-c2ccccc2)c1-n1cccc1C(=O)C(=O)Nc1ccccc1C(F)(F)F`: the EC50 was > 60 µM (inactive), the EC90 was over 60 µM and the CC50 is over 60 µM.

Consider `COc1cc(OC)c(C2=NOC(C(=O)Nc3cc(C)nn3-c3ccccc3)C2)cc1Cl` (configuration not stated), for which the EC50 was > 60 µM (inactive), the EC90 is over 60 µM and the CC50 was over 60 µM.

Consider `CN(C)c1cccc(C(=O)Nc2ccc3nc4n(c(=O)c3c2)CCCCC4)c1`, for which the EC50 is 17.4 µM, the EC90 was over 60 µM and the 50% cytotoxic concentration (CC50) is over 60 µM.

For the compound `COCc1cc(=O)n2c(-c3ccc(C)cc3)n[nH]c2n1`, the EC50 is > 60 µM (inactive), the EC90 was over 60 µM and the CC50 was over 60 µM.

Regarding `COCCNC(=O)C(c1ccccc1C)N(CCOC)C(=O)Cn1nnc2ccccc21` (configuration not stated), the EC50 was > 60 µM (inactive), the EC90 was over 60 µM and the CC50 is over 60 µM.

`O=C(CN1CCN(c2ncccn2)CC1)NCc1ccccc1`: the EC50 is > 60 µM (inactive), the EC90 is over 60 µM and the CC50 was over 60 µM.

For `COc1ccc(C)cc1NC(=O)C1CC(=O)OC12CCCCC2` (configuration not stated), the EC50 is > 60 µM (inactive), the EC90 was over 60 µM and the CC50 was over 60 µM.

As for `COc1c(C(C)C)cc(NC(C)=O)cc1C(C)C`, the EC50 was > 60 µM (inactive), the EC90 was over 60 µM and the CC50 was over 60 µM.

As for `S=C(Nc1ccccc1)N1CCn2c1nc1ccccc12`, the EC50 was > 60 µM (inactive), the 90% effect concentration (EC90) was over 60 µM and the CC50 is over 60 µM.

For `O=C(c1cccs1)N1CCn2c1nc1ccccc12`, the EC50 is > 60 µM (inactive), the EC90 was over 60 µM and the CC50 is over 60 µM.

Consider `O=C1NCCCc2c1oc1cc(Br)c(O)c(Br)c21`, for which the EC50 is > 60 µM (inactive), the concentration for an effect of 90% (EC90) was over 60 µM and the 50% cytotoxic concentration (CC50) is over 60 µM.

For `CC1CCN(C(=O)Nc2cccc(NC(=O)N3CCC(C)CC3)c2)CC1`, the EC50 was > 60 µM (inactive), the EC90 is over 60 µM and the cytotoxic concentration (CC50) was over 60 µM.

Regarding `Cn1c2ccccc2c(=O)c2c(=O)n(C3CCCCC3)c(-c3cccs3)nc21`, the EC50 is 59.3 µM (inactive), the EC90 was over 60 µM and the CC50 was found to be 6.45 µM.

As for `CCSc1nnc([C@H](Cc2ccccc2)NC(=O)OC(C)(C)C)o1`, the EC50 is > 60 µM (inactive), the 90% effect concentration (EC90) was over 60 µM and the CC50 is over 60 µM.

As to `COc1ccc(NC(=O)C2CCCCN2S(=O)(=O)c2ccc(F)cc2)cc1` (configuration not stated), the EC50 is > 60 µM (inactive), the EC90 was over 60 µM and the CC50 is over 60 µM.

`Cc1ccc2c(C)c(C(=O)Nc3cccnc3)oc2c1`: the EC50 was > 60 µM (inactive), the concentration for an effect of 90% (EC90) is over 60 µM and the cytotoxic concentration (CC50) was over 60 µM.

Take `COCCNC(=O)C(c1ccco1)N(C(=O)Cn1nnc2ccccc21)c1ccccc1C` (configuration not stated): the EC50 is > 60 µM (inactive), the EC90 was over 60 µM and the half-maximal cytotoxic concentration (CC50) is over 60 µM.

With `CCOC(=O)/C=C1\SCC(=O)N1CC(=O)NC(C)C`, the EC50 was > 60 µM (inactive), the EC90 is over 60 µM and the CC50 was over 60 µM.

`CC(NC(=O)c1ccc(S(=O)(=O)N(C)C)cc1)c1ccccc1` (configuration not stated): the EC50 is > 60 µM (inactive), the concentration for an effect of 90% (EC90) is over 60 µM and the CC50 was over 60 µM.

As to `O=C(Nc1ccc2c(c1)CCC2)c1cc2ccccc2o1`, the EC50 is > 60 µM (inactive), the concentration for an effect of 90% (EC90) is over 60 µM and the CC50 was over 60 µM.

Turning to `O=C(c1cc2ccccc2o1)n1nnc2ccccc21`, the EC50 was > 60 µM (inactive), the EC90 was over 60 µM and the half-maximal cytotoxic concentration (CC50) is over 60 µM.

Regarding `Cc1nn2c(C(F)(F)F)cc(-c3ccc(Cl)cc3)nc2c1C(=O)N1CCOCC1`, the EC50 was > 60 µM (inactive), the EC90 is over 60 µM and the CC50 was over 60 µM.

Regarding `CCC1CCCCN1C(=O)Nc1cccc(NC(=O)N2CCCCC2CC)c1` (configuration not stated), the EC50 is > 60 µM (inactive), the 90% effect concentration (EC90) was over 60 µM and the CC50 is over 60 µM.

Turning to `Nc1c(C(=O)Nc2ccc(Cl)cc2)oc2ccccc12`, the EC50 was > 60 µM (inactive), the EC90 is over 60 µM and the CC50 was over 60 µM.

For `CS(=O)(=O)c1nc(-c2cccs2)cc(C(F)(F)F)n1`, the EC50 is > 60 µM (inactive), the 90% effect concentration (EC90) is over 60 µM and the cytotoxic concentration (CC50) was determined as 30.1 µM.

For `OCC#CCSc1nnc(-c2ccncc2)o1`, the EC50 is > 60 µM (inactive), the 90% effect concentration (EC90) was over 60 µM and the cytotoxic concentration (CC50) was over 60 µM.

On to `CCOc1ccccc1NC(=O)c1ccc(NC(=O)c2ccco2)cc1`, for which the EC50 was > 60 µM (inactive), the 90% effect concentration (EC90) was over 60 µM and the CC50 is over 60 µM.
